Where a name gives a salt, the structure may show the parent alone. Read-outs that look alike come from different tables or passages of the source.
Legend:
Type in all cases: biochemical
[1] = target: MASP-2 (CCP1-CCP2-SP) (Homo sapiens (Human), UniProt O00187); assay: biochemical
[2] = target: mMASP-2 (Mus musculus (Mouse), UniProt Q91WP0); assay: Enzymatic inhibition of mMASP-2; details: read-out: mMASP-2 Ki
[3] = target: human α-thrombin (Homo sapiens (Human), UniProt P00734); assay: Enzymatic assay for thrombin (Boc-VPR-AMC substrate)
[4] = selectivity for MASP-2 inhibition versus thrombin
[5] = MASP-2 inhibition versus thrombin

Chain of mMASP-2 (Q91WP0 20-685): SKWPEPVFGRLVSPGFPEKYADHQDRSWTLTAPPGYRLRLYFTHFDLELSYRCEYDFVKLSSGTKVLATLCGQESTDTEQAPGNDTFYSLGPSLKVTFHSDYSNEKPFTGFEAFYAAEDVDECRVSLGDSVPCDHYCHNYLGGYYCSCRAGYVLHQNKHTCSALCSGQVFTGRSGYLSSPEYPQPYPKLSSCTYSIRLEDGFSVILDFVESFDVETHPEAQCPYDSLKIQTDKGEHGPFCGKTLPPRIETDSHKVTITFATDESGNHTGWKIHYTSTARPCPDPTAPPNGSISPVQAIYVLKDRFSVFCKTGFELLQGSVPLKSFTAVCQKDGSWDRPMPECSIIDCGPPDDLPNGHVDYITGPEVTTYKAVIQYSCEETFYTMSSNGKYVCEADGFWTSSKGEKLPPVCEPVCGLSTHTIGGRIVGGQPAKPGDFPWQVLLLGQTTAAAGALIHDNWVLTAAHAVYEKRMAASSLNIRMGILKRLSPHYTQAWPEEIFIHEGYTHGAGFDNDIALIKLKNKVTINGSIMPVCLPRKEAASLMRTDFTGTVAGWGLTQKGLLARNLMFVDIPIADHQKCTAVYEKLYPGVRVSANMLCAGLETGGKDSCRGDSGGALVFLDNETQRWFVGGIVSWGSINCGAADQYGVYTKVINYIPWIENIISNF
Chain of MASP-2 (CCP1-CCP2-SP) (O00187 445-686): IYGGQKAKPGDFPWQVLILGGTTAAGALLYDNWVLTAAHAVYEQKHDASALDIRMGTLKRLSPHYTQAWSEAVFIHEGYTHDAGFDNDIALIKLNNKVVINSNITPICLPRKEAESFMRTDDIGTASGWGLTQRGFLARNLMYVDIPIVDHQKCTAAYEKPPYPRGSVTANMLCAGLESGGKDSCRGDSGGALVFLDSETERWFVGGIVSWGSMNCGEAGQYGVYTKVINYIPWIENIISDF

Compound	Ki ([1]; read-out: MASP-2 Ki)	MASP-2 vs. thrombin selectivity [1, 4]	Ki [2]	Ki ([3]; Thrombin Ki (μM))	Ki ([3]; read-out: Thrombin Ki)	MASP-2 vs. thrombin selectivity [1, 5]	Ki [1]
C[C@H](NC(=O)[C@H]1C[C@@H](c2ccccc2)CCN1)C(=O)NCc1cc(Cl)ccc1-n1cnnn1 [compound 1426, (2R,4S)—N—((S)-1-((5-Chloro-2-(1H-tetrazol-1-yl)benzyl)amino)-1-oxopropan-2-yl)-4-phenylpiperidine-2-carboxamide Trifluoroacetate]	< 500 nM	*** (≥25 to <100-fold)	500 to 2500 nM	0.5 to 2.5 µM			
Cc1nc(N)ccc1CNC(=O)[C@H](C)NC(=O)[C@H]1C[C@H](Cc2cc(Br)c(Cl)s2)CN1 [compound 1483, (2R,4R)—N—((S)-1-(((6-Amino-2-methylpyridin-3-yl)methyl)amino)-1-oxopropan-2-yl)-4-((4-bromo-5-chlorothiophen-2-yl)methyl)pyrrolidine-2-carboxamide Di-trifluoroacetate salt]	< 500 nM	**** (≥100-fold)	< 500 nM	10 to 25 µM			
C[C@H](NC(=O)[C@@H](CCc1ccccc1)NCc1ccc(N2CCN(S(C)(=O)=O)CC2)cc1)C(=O)NCc1ccc(C(=N)N)cc1 [compound 1250, (R)—N—((S)-1-((4-Carbamimidoylbenzyl)amino)-1-oxopropan-2-yl)-2-((4-(4-(methylsulfonyl)piperazin-1-yl)benzyl)amino)-4-phenylbutanamide]	< 500 nM	* (≥1.0 to <5.0-fold)	< 500 nM		< 0.5 µM		
Cc1ccc([C@@H]2CCN[C@@H](C(=O)N[C@@H](C)C(=O)NCc3ccc(C(=N)N)cc3)C2)cc1 [compound 1248, (2R,4R)—N—((S)-1-((4-Carbamimidoylbenzyl)amino)-1-oxopropan-2-yl)-4-(p-tolyl)piperidine-2-carboxamide]	< 500 nM	** (≥5.0 to <25-fold)	< 500 nM	0.5 to 2.5 µM			
C[C@H](NC(=O)[C@H]1C[C@H](c2ccccc2)CN1)C(=O)NCc1ccc(C(=N)N)c(F)c1 [compound 1300, (2R,4R)—N—((S)-1-((4-Carbamimidoyl-3-fluorobenzyl)amino)-1-oxopropan-2-yl)-4-phenylpyrrolidine-2-carboxamide Di-trifluoroacetate salt]	< 500 nM	*** (≥25 to <100-fold)	< 500 nM	2.5 to 10 µM			
Cc1nc(N)ccc1CNC(=O)[C@H](C)NC(=O)[C@H]1C[C@H](Cc2ccccc2-c2ccccc2)CN1 [compound 1373, (2R,4S)-4-([1,1′-Biphenyl]-2-ylmethyl)-N-((S)-1-(((6-amino-2-methylpyridin-3-yl)methyl)amino)-1-oxopropan-2-yl)pyrrolidine-2-carboxamide Di-trifluoroacetate salt]	< 500 nM	*** (≥25 to <100-fold)	< 500 nM	0.5 to 2.5 µM			
N=C(N)c1ccc(CNC(=O)[C@H](CCC(N)=O)NC(=O)[C@H](N)CCc2ccccc2)cc1 [compound 1335, (S)-2-((R)-2-Amino-4-phenylbutanamido)-N-(4-carbamimidoylbenzyl)pentanediamide Di-trifluoroacetate]	< 500 nM	*** (≥25 to <100-fold)	< 500 nM	2.5 to 10 µM			
Cc1nc(N)ccc1CNC(=O)[C@H](C)NC(=O)[C@H]1CC(Cc2ccc(F)cc2)(Cc2ccc(F)cc2)CN1 [compound 1480, (R)—N—((S)-1-(((6-Amino-2-methylpyridin-3-yl)methyl)amino)-1-oxopropan-2-yl)-4,4-bis(4-fluorobenzyl)pyrrolidine-2-carboxamide Di-trifluoroacetate salt]	< 500 nM	**** (≥100-fold)	500 to 2500 nM		> 25 µM		
C[C@H](NC(=O)[C@H]1C[C@H](Cc2ccccc2-c2ccc(Cl)s2)CN1)C(=O)NCc1cc(Cl)ccc1-n1cnnn1 [compound 1409, (2R,4S)—N—((S)-1-((5-Chloro-2-(1H-tetrazol-1-yl)benzyl)amino)-1-oxopropan-2-yl)-4-(2-(5-chlorothiophen-2-yl)benzyl)pyrrolidine-2-carboxamide Trifluoroacetate]	< 500 nM	* (≥1.0 to <5.0-fold)	2500 to 10000 nM		< 0.5 µM		
Cc1cc(C)cc(CC[C@@H](N)C(=O)N[C@@H](C)C(=O)NCc2ccc(C(=N)N)cc2)c1 [compound 1073]	< 500 nM		< 500 nM		< 0.5 µM	** (5.0 to 25-fold)	
CN[C@H](CCc1ccccc1)C(=O)N[C@@H](C)C(=O)NCc1ccc(C(=N)N)cc1 [compound 1044]	< 500 nM		< 500 nM		< 0.5 µM	** (5.0 to 25-fold)	
C[C@H](NC(=O)[C@@H](CCc1ccccc1)NC1CCC1)C(=O)NCc1ccc(C(=N)N)cc1 [compound 1108]	< 500 nM		< 500 nM		< 0.5 µM	* (1.0 to 5.0-fold)	
C[C@H](NC(=O)[C@@H](CCc1ccccc1)NCc1ccc(-c2nnn[nH]2)cc1)C(=O)NCc1ccc(C(=N)N)cc1 [compound 1233, (R)-2-((4-(1H-Tetrazol-5-yl)benzyl)amino)-N—((S)-1-((4-carbamimidoylbenzyl)amino)-1-oxopropan-2-yl)-4-phenylbutanamide]	< 500 nM	* (≥1.0 to <5.0-fold)	< 500 nM	0.5 to 2.5 µM			
COc1ccc(C[C@@H]2CN[C@@H](C(=O)N[C@@H](C)C(=O)NCc3ccc(N)nc3C)C2)cc1Cl [compound 1475, (2R,4S)—N—((S)-1-(((6-Amino-2-methylpyridin-3-yl)methyl)amino)-1-oxopropan-2-yl)-4-(3-chloro-4-methoxybenzyl)pyrrolidine-2-carboxamide Di-trifluoroacetate salt]	< 500 nM	**** (≥100-fold)	< 500 nM	10 to 25 µM			
C[C@H](NC(=O)[C@H](N)CCc1ccccc1)C(=O)NCc1cc(C#N)ccc1O [compound 1314, (R)-2-Amino-N—((S)-1-((5-cyano-2-hydroxybenzyl)amino)-1-oxopropan-2-yl)-4-phenylbutanamide Trifluoroacetate salt]		* (≥1.0 to <5.0-fold)	> 25000 nM		> 25 µM		10000 to 25000 nM
Cc1ccccc1CC[C@@H](N)C(=O)N[C@@H](C)C(=O)NCc1ccc(C(=N)N)cc1 [compound 1045]	< 500 nM		< 500 nM		< 0.5 µM	** (5.0 to 25-fold)	
C[C@H](NC(=O)[C@H](N)CCc1ccccc1)C(=O)NCc1cc(Cl)ccc1CO [compound 1287, (R)-2-amino-N—((S)-1-((5-Chloro-2-(hydroxymethyl)benzyl)amino)-1-oxopropan-2-yl)-4-phenylbutanamide]			> 25000 nM		> 25 µM		10000 to 25000 nM
Cc1nc(N)ccc1CNC(=O)[C@H](C)NC(=O)[C@H]1C[C@H](Cc2ccc(F)c(Cl)c2)CN1 [compound 1459, (2R,4S)—N—((S)-1-(((6-Amino-2-methylpyridin-3-yl)methyl)amino)-1-oxopropan-2-yl)-4-(3-chloro-4-fluorobenzyl)pyrrolidine-2-carboxamide Di-trifluoroacetate salt]	< 500 nM	**** (≥100-fold)	< 500 nM	2.5 to 10 µM			
C[C@H](NC(=O)[C@H](N)C/C=C/c1ccccc1)C(=O)NCc1ccc(N)nc1 [compound 1261, (R, E)-2-Amino-N—((S)-1-(((6-aminopyridin-3-yl)methyl)amino)-1-oxopropan-2-yl)-5-phenylpent-4-enamide]		* (≥1.0 to <5.0-fold)	10000 to 25000 nM		> 25 µM		10000 to 25000 nM
Cc1cc(Cl)cc(CNC(=O)[C@H](C)NC(=O)[C@H]2C[C@H](Cc3ccc(Br)cc3)CN2)c1O [compound 1374, (2R,4S)-4-(4-bromobenzyl)-N-((S)-1-((5-chloro-2-hydroxy-3-methylbenzyl)amino)-1-oxopropan-2-yl)pyrrolidine-2-carboxamide Hydrochloride]	< 500 nM		< 500 nM		> 25 µM		
Cc1nc(N)ccc1CNC(=O)[C@H](C)NC(=O)[C@H]1C[C@H](Cc2nc3cc(Cl)ccc3s2)CN1 [compound 1460, (2R,4R)—N—((S)-1-(((6-Amino-2-methylpyridin-3-yl)methyl)amino)-1-oxopropan-2-yl)-4-((5-chlorobenzo[d]thiazol-2-yl)methyl)pyrrolidine-2-carboxamide Di-trifluoroacetate salt]	< 500 nM	**** (≥100-fold)	< 500 nM		> 25 µM		
Cc1nc(N)ccc1CNC(=O)[C@H](C)NC(=O)[C@H]1C[C@H](Cc2ccc(C)c3ccccc23)CN1 [compound 1479, (2R,4S)—N—((S)-1-(((6-Amino-2-methylpyridin-3-yl)methyl)amino)-1-oxopropan-2-yl)-4-((4-methylnaphthalen-1-yl)methyl)pyrrolidine-2-carboxamide Dihydrochloride]	< 500 nM	**** (≥100-fold)	< 500 nM	10 to 25 µM			
N=C(N)c1ccc(CNC(=O)[C@H](Cc2cnc[nH]2)NC(=O)[C@H](N)CCc2ccccc2)cc1 [compound 1332, (R)-2-Amino-N—((S)-1-((4-carbamimidoylbenzyl)amino)-3-(1H-imidazol-5-yl)-1-oxopropan-2-yl)-4-phenylbutanamide Di-trifluoroacetate]			2500 to 10000 nM		> 25 µM		10000 to 25000 nM
Cc1nc(N)ccc1CNC(=O)[C@@H]1CCCN1C(=O)[C@H]1C[C@H](Cc2ccc(Br)cc2)CN1 [compound 1465, (S)—N-((6-Amino-2-methylpyridin-3-yl)methyl)-1-((2R,4S)-4-(4-bromobenzyl)pyrrolidine-2-carbonyl)pyrrolidine-2-carboxamide Di-trifluoroacetate salt]	< 500 nM	* (≥1.0 to <5.0-fold)	500 to 2500 nM		< 0.5 µM		

Reference: patent US11584714B2 (priority 2018, dated 2023)
